In PubChem BioAssay AID1508591:

Conditions: rat; liver microsomes; pH 7.4; 15.0 min; 1.0 µM

| SMILES | half-life |
| --- | --- |
| Cc1sc(NC(=O)Cc2ccc3c(c2)OCO3)nc1-c1ccc2c(c1)CCN2 | 8.6 min |
| NC1CCN(C(=O)C2CCCN(c3nc(-c4ccccc4)nc4c3CCC4)C2)CC1 (configuration not stated) | > 30 min |
| O=C(CSc1nc(-c2ccc(F)cc2)[nH]c1-c1ccc(F)cc1)Nc1ccc2c(c1)OCCO2 | 1.19 min |
| Cc1cc(NS(=O)(=O)c2ccc(NC(=O)Cc3ccc(Cl)c(Cl)c3)cc2)n(C)n1 | 13 min |
| N#Cc1cc(-c2nc(Nc3ccc(F)c(F)c3)c3ccccc3n2)ccn1 | > 30 min |
| CC1=C(C(=O)Nc2nncs2)C(c2ccccc2Br)N=C(Nc2nc3ccccc3o2)N1 (configuration not stated) | > 30 min |
| Cc1ccc(CN2CCOC[C@H]2c2ncc(-c3cccc(F)c3)[nH]2)cc1 | 2.16 min |
| COc1ccc(NS(=O)(=O)c2ccc(C)c(C(=O)Nc3ccc4oc(C)nc4c3)c2)cc1 | 4.3 min |
| Cc1ccc(S(=O)(=O)Nc2ccncc2C(=O)Nc2nc(-c3ccccc3)cs2)cc1 | > 30 min |
| Cn1nnnc1SCCCNCc1cccc(OCc2ccccc2Cl)c1 | 1.72 min |
| CCN1C(=O)c2ccccc2S(=O)c2ccc(C(=O)NCc3ccc(OC)cc3)cc21 (configuration not stated) | 7.8 min |
| O=[S+]([O-])(Nc1nccs1)c1ccc(NCc2cccc3c2NCC3)cc1 | > 30 min |
| Fc1ccc(Nc2nc(-c3ccccc3)nc3ccccc23)cc1F | > 30 min |
| CSc1nn(Cc2cccc(C)c2)c(N)c1S(=O)(=O)c1ccccc1 | 1.2 min |
| O=C([C@H](Cc1ccc(O[S+](=O)([O-])c2cccc3cnccc23)cc1)N[S+](=O)([O-])c1cccc2cnccc12)N1CCN(Cc2ccccc2)CC1 | 16 min |
| CC(=O)Nc1ccc(-c2csc(N3CCC(C(N)=O)CC3)n2)cc1 | > 30 min |
| CC(=O)NCCNC[C@@H]1C=C(C)[C@H](Cc2nnc(-c3ccccc3)o2)C[C@H]1C(C)C | 5.06 min |
| CCn1cc(C(=O)N2CCN(c3cccc(Cl)c3)CC2)c2cc(OC)c(OC)cc2c1=O | 7.12 min |
| Fc1ccc(Nc2nc(C3=CCNCC3)nc3ccccc23)cc1F | 6.1 min |
| O=C(Nc1nc(-c2ccccc2)cs1)c1ccncc1NS(=O)(=O)c1ccc(F)cc1Cl | 19 min |
| O=S(=O)(Nc1nc2ccccc2s1)c1ccc(NCc2ccc(Br)cc2O)cc1 | > 30 min |
| O=[S+]([O-])(Nc1nccs1)c1ccc(NCc2cc(F)cc(Cl)c2O)cc1 | > 30 min |
| COc1ccc(C(=O)CCN(C)C)cc1F | 1.08 min |
| O=S(=O)(Nc1cnc2ccccc2c1)c1ccc(NCc2cccc(Cl)c2O)cc1 | 18 min |
| COc1ccc(C2C=C(c3ccc(Cl)cc3)Nc3nc(-c4ccc(Cl)cc4)nn32)cc1 (configuration not stated) | > 30 min |
| CCN1CCN(C(=O)CCCn2nc(C)c3c(C)n(-c4ccc(C)cc4)nc3c2=O)CC1 | 22.2 min |

| SMILES | half-life |
| --- | --- |
| O=C(Nc1ncc(Cc2ccc(C(F)(F)F)cc2)s1)c1ccc(-c2ccccc2[N+](=O)[O-])o1 | > 30 min |
| Cc1ccc(-c2ccc(CNc3nc(-c4ccccc4C(C)C)ncc3C)cc2)cn1 | 4.28 min |
| Fc1ccc(Nc2nc(-c3ccnc(C(F)(F)F)c3)nc3ccccc23)cc1F | > 30 min |
| CC(C)c1ccccc1-c1ncc(F)c(NCc2ccc(-c3cccnc3)s2)n1 | 2.8 min |
| COc1cc(Cl)c(C)cc1Nc1c2c(nc3ccccc13)CCC2 | 1.75 min |
| COc1ccc(OCCN2CCN(C(=O)c3ccc(OC)cc3)CC2)cc1 | > 30 min |
| Cc1ccccc1CSc1nc2ncc(Br)cc2[nH]1 | 7 min |
| N#Cc1c(NC(=O)c2cccc3ccccc23)sc2c1CCCC2 | 7.59 min |
| CN1C[C@@H]2C[C@H]1CN2c1cc2c(cc1F)c(=O)c(C(=O)O)cn2C1CC1 | > 30 min |
| CC(C)CC(=O)Nc1n[nH]c2c1CN(C(=O)C1CCN(C)CC1)C2(C)C | > 30 min |
| CNC(=O)c1ccccc1Nc1nc(Nc2ccc(N3CCOCC3)cc2OC)ncc1Cl | > 30 min |
| NC(=O)Nc1cc(-c2ccc(CN3CCOCC3)cc2)sc1C(N)=O | > 30 min |
| O=S(=O)(Nc1ccc(C2CCNCC2)cc1)c1ccc(NCc2cccc(Cl)c2O)cc1 | 20 min |
| O=C(O)c1ccnc(-c2cc(C(=O)NCCc3ccccc3)ccn2)c1 | > 30 min |
| O=C1CCCC2=C1C(c1[nH]ncc1Cl)N=C(Nc1nc3ccc(F)cc3o1)N2 (configuration not stated) | 14 min |
| Cc1ccccc1-c1nc(NCc2cccs2)c2ccccc2n1 | 2.74 min |
| COc1ccc(-n2c(C)cc(C3=NNC(=NC4CC4)SC3)c2C)cc1 | 11.8 min |
| COC(=O)c1ccc2c(c1)nc1n2[C@@H](CNC(C)=O)COC1 | > 30 min |
| O=C(Cc1ccc(Cl)c(Cl)c1)Nc1ccc(S(=O)(=O)Nc2cncnc2)cc1 | > 30 min |
| COC(=O)C1=C(C)NC(C)=C(C(=O)O[C@@H]2CCCN(Cc3ccccc3)C2)[C@@H]1c1cccc([N+](=O)[O-])c1 | 1.3 min |
| Cc1nn(CCc2nc(-c3ccccc3)cs2)c2[nH]c(=O)cc(C(F)(F)F)c12 | 10.3 min |
| COc1ccnc(NC(=S)N2CCN(c3cccc(C(F)(F)F)c3)CC2)c1 | > 30 min |
| C/C(=N\NC(N)=S)C1=CCC2C3CC[C@H]4CC(O)CC[C@]4(C)C3CC[C@]12C (some centres not stated) | > 30 min |
| COC(=O)c1c(NC(=O)Cc2coc3cc(C)ccc23)sc2c1CCC2 | 2.31 min |
| O=c1[nH]c(N2CCOCC2)nc2c1CCN(Cc1ccc(Cl)cc1F)CC2 | > 30 min |
| C[C@@]1(C(=O)Nc2ccc(F)nc2)CCCN1c1nc(Nc2cc(C3CC3)[nH]n2)c2cccn2n1 | 8.35 min |

| SMILES | half-life |
| --- | --- |
| Cc1ccc(S(=O)(=O)Nc2cnccc2C(=O)Nc2nc(-c3cccc(F)c3)cs2)cc1 | 27 min |
| COc1ccc(Cl)cc1C(=O)Nc1ccc(NC(=O)c2ccco2)cc1 | > 30 min |
| CCOc1ccc(CCNC(=O)c2ccnn2Cc2cccc(C)c2)cc1OCC | 1.5 min |
| N#Cc1ccc(C(=O)Nc2ccc(Cl)c(-c3nc4cc(Cl)ccc4o3)c2)c(F)c1 | > 30 min |
| CCOc1ccccc1C(=O)Nc1cccnc1C(=O)Nc1cccc(S(=O)(=O)C(F)(F)F)c1 | > 30 min |
| NC(=O)C1CCN(c2nc(-c3cccc(F)c3)cs2)CC1 | 1.95 min |
| CCNC(=O)c1ccc(-c2ccc3ncnc(NCC4CCCO4)c3c2)o1 (configuration not stated) | > 30 min |
| COc1ccc(CCN2C(=O)N(c3ccc(F)cc3)C(=O)C2CC(=O)Nc2ccc(F)c(F)c2)cc1 (configuration not stated) | 4.04 min |
| COc1ccc(NC(=O)c2ccc[nH]2)cc1S(=O)(=O)Nc1ccc(Br)cc1 | 7.44 min |
| Cc1cccc(Nc2nc(NCc3ccco3)c3ccccc3n2)c1 | 3.54 min |
| COc1ccc(-c2nc3ccccc3s2)cc1NC(=O)c1ccc(F)cc1 | > 30 min |
| COc1ccc(Nc2nc(-c3cccc(OC)c3)no2)cc1 | 20.3 min |
| CCOc1cccc(C(=O)Nc2nc3c(s2)CC(C(C)(C)C)CC3)c1 (configuration not stated) | 9.74 min |
| c1ccc(CNc2cc3c(cn2)CN(Cc2cccnc2)CCN3)cc1 | 15 min |
| CC(C)(C)OC(=O)N[C@@H](Cc1ccc(OS(=O)(=O)c2cccc3cnccc23)cc1)C(=O)N1CCCN(C(=O)OC(C)(C)C)CC1 | 2 min |
| Cc1ccc(OCCn2c(CCNC(=O)C3CCCCC3)nc3ccccc32)cc1 | 1.6 min |
| C#CCOc1ccc(-c2nnc(Nc3ccc(NC(C)=O)cc3)c3ccccc23)cc1 | > 30 min |
| CCCN1CNc2c(c(=O)[nH]c(=S)n2CCc2cccc(Cl)c2Cl)C1 | 2.47 min |
| COc1ccc(-c2ccc3ncc(Nc4cccnc4OC)n3n2)cn1 | 10.8 min |
| COc1cc(NS(=O)(=O)c2ccc(C)cc2)cc(C(=O)Nc2nc(-c3ccccc3)cs2)c1 | 13 min |
| Clc1ccccc1-c1nccc(-n2ccnc2)n1 | > 30 min |
| O=S(=O)(Nc1ccc(S(=O)(=O)Nc2nccs2)cc1)c1ccc2ccccc2c1 | > 30 min |
| COc1ccc(C2CC(=O)Nc3nc(N)sc32)cc1OC (configuration not stated) | > 30 min |
| COc1ncccc1-c1cc2c(ccn2C(C)C)c(C(=O)NCc2c(C)cc(C)[nH]c2=O)n1 | 5.49 min |
| CCOC(=O)C1CCN(C(=O)C(C)(C)NC(=O)Nc2ccc(-c3ccccc3)cc2)CC1 | 1.4 min |
| COc1ccc(C)cc1NC(=O)c1cnc(-c2ccc(F)cc2)nc1-c1ccncc1 | 5.86 min |

| SMILES | half-life |
| --- | --- |
| O=C(Nc1ccc(Oc2ccnc3[nH]ccc23)c(F)c1)c1cccn(-c2ccc(F)cc2)c1=O | 13.1 min |
| CC(C)=CCNc1ncnc2nc[nH]c12 | > 30 min |
| Nc1ncccc1-c1nc2ccc(-c3ccccc3)nc2n1-c1ccc(C2(N)CCC2)cc1 | > 30 min |
| O=C1CCCC2=C1C(c1ccncc1Cl)N=C(Nc1nc3ccccc3o1)N2 (configuration not stated) | 6.6 min |
| CC(C)(C)NS(=O)(=O)c1ccc(-c2ccc3[nH]nc(N)c3c2)cc1 | 17.2 min |
| O=C(NCc1cccnc1)c1nc(-c2ccc(Cl)nc2)c2cnccn12 | 26.6 min |
| CCOc1ccc(CCNC(=O)c2cc3ccccc3n2Cc2cccc(C)n2)cc1OCC | 1.6 min |
| O=c1[nH]c(C2CCN(S(=O)(=O)c3ccc4c(c3)OCCO4)CC2)nc2c1nnn2Cc1c(F)cccc1Cl | 1.4 min |
| COc1ccc(NC(=O)CCCc2nnc3n(CCC(C)C)c(=O)c4sccc4n23)cc1Cl | 2.96 min |
| COc1cc(-c2nc(Nc3ccc(F)c(F)c3)c3ccccc3n2)cc(OC)n1 | > 30 min |
| NC(=O)C1CCN(c2ncc(-c3ccc(Br)cc3)s2)CC1 | 3.6 min |
| COc1cccc(-c2nc3cc(NC(=O)c4ccc(C)c([N+](=O)[O-])c4)ccc3o2)c1 | > 30 min |
| Cc1ccc(SC2=NS(=O)(=O)c3ccccc32)c(C)c1 | 1.54 min |
| Nc1ncc(S(=O)(=O)N2CCN(c3ccccc3)CC2)cn1 | 1.3 min |
| O=C(O)c1ccnc2cc(C(OCCN3CCCCC3)c3ccccc3Cl)[nH]c12 (configuration not stated) | > 30 min |
| CN(C(=O)c1cn2c(-c3ccc(C(F)(F)F)cc3)cnc2cn1)c1ccc(C#N)cc1 | > 30 min |
| Cc1ccc(Cl)cc1NS(=O)(=O)c1cc2c(cc1F)NC(=O)CC2 | 4.97 min |
| O=C(Cn1ccn2nc3c(c2c1=O)CCCCC3)Nc1ccc2c(c1)OCO2 | 6.81 min |
| Cn1ncnc1[C@H]1c2n[nH]c(=O)c3cc(F)cc(c23)N[C@@H]1c1ccc(F)cc1 | > 30 min |
| Cc1ccc2oc(NC3=NC4(CCCC4)C4=C(CCCC4=O)N3)nc2c1 | 2.7 min |
| COc1ccc(C2Nc3ccccc3C(=O)N2Cc2cccnc2)cc1COc1c(C)cc(NC(C)=O)cc1C (configuration not stated) | 1.8 min |
| Cc1ccc(CCNC(=O)C2CCCN(C(=O)c3cc4sccc4n3C)C2)cc1 (configuration not stated) | 1.7 min |
| Cc1ccc(S(=O)(=O)Nc2cnccc2C(=O)Nc2ccc(N3CCOCC3)cc2)cc1 | 23 min |
| COc1cc2c3cc1Oc1c(O)c(OC)cc4c1[C@@H](Cc1ccc(cc1)Oc1cc(ccc1O)C[C@H]3N(C)CC2)N(C)CC4 | 29.8 min |
